Measurements reported in US11365203B2, “Fluorescent dye and preparation method and use thereof” (Fluorescence Diagnosis (shanghai) Biotech Company Ltd., priority 2016, dated 2022).

Test: Fluorescence emission spectra of molecular rotors in glycerin and methanol
Assay type: physicochemical
Details: for Maximum Emission Wavelength: 1×10^−5 M in glycerin and methanol, excited at maximum excitation wavelength of each dye; for Fluorescence Intensity Ratios in Glycerol/Methanol: 1×10^−5 M, glycerol vs methanol solution
Method: The fluorescent dyes (molecular rotors) prepared in Examples 1-68 were separately dissolved in dimethyl sulfoxide to prepare respectively a mother liquor having a concentration of 1×10^−2 M, and each of the mother liquors was added individually to glycerin and methanol, and mixed uniformly, thereby solutions of a final concentration of 1×10^−5 M were prepared individually. According to the different fluorescent dyes, the fluorescence emission spectra of the fluorescent dyes were detected with the maximum excitation wavelengths of respective fluorescent dyes successively under the same conditions.

Maximum Emission Wavelength | Fluorescence Intensity Ratios in Glycerol/Methanol | Compound
655 nm | 655 | 6-[2-cyano-2-(2-phenylpropionazole)-vinyl]-2-dimethylamino-thieno[3,2-B:2′,3′-D]thiophene [Molecular Rotor 12]
557 nm | 892 | CN(CCOCCCS(=O)(=O)O)c1cc2sc(C=C(C#N)C#N)cc2s1 [Molecular Rotor 4, 6-(2,2-dicyano-vinyl)-2-[N-methyl-N-(3-sulfonic acid propyloxyethyl)]-thieno[3,2,b]thiophene]
555 nm | 1980 | CNc1cc2sc(/C=C(\C#N)C(=O)O)cc2s1 [Molecular Rotor 5, 6-(2-cyano-2-formic acid)-2-methylamino-thieno[3,2,b]thiophene]
585 nm | 1453 | COCCOCCOCCOCCOCCN(C)c1cc2sc(/C=C3\N=C(C)N(C)C3=O)cc2s1 [Molecular Rotor 6]
555 nm | 1877 | COCCNC(=O)/C(C#N)=C/c1cc2sc(N(C)CCC#N)cc2s1 [Molecular Rotor 7]
520 nm | 851 | CC1(C)OC(=O)C(C#N)=C1c1cc2sc(O)cc2s1 [Molecular Rotor 10]
620 nm | 568 | CN(C)c1cc2sc3cc(/C=C(\C#N)C(=O)OC(C)(C)C)sc3c2s1 [Molecular Rotor 11, 6-(2-cyano-2-tert-butyl formatevinyl)-2-dimethylamino-thieno[3,2-B:2′,3′-D]thiophene]
690 nm | 352 | CN(CC(=O)O)c1cc2sc3cc(/C=C(\C#N)c4nc5ccccc5s4)sc3c2s1 [Molecular Rotor 13, 6-[2-cyano-2-(1,3-benzothiazol-2-yl)-vinyl]-2-N-m ethylamino-N-acetic acid-dithiophene[3,2-B:2′3′-D]thiophene]
620 nm | 681 | CN(C)c1cc2sc3cc(C=C(C#N)C#N)sc3c2s1 [Molecular Rotor 14]
620 nm | 799 | COCCNC(=O)/C(C#N)=C/c1cc2sc3cc(N4CCCC4)sc3c2s1 [Molecular Rotor 15]
620 nm | 951 | CN(CC(O)C(O)C(O)C(O)CO)c1cc2sc3cc(/C=C(\C#N)C(=O)O)sc3c2s1 (stereo not drawn) [Molecular Rotor 16]
618 nm | 888 | COC(=O)/C(C#N)=C/c1cc2sc3cc(N(CC(=O)O)CC(=O)O)sc3c2s1 [Molecular Rotor 17]
630 nm | 678 | COCCOCCOCCOCCOCCOCCOCCOCCOCCOCCOCCOCCOCCOCCOCCNc1cc2sc3cc(/C=C4\N=C(C)N(C)C4=O)sc3c2s1 [Molecular Rotor 18]
650 nm | 791 | CN1C(=O)/C(=C/c2cc3sc4cc(N(CCO)CCO)sc4c3s2)N=C1c1ccccc1 [Molecular Rotor 19]
620 nm | 544 | CCOC(=O)/C(C#N)=C/c1cc2sc3cc(N4CCOCC4)sc3c2s1 [Molecular Rotor 21]
608 nm | 568 | CN(CCO)c1ccc2cc(/C=C(\C#N)c3nc4ccccc4o3)sc2c1 [Molecular Rotor 23]
608 nm | 912 | N#C/C(=C\c1cc2ccc(N(CCO)CCO)cc2s1)c1nc2ccccc2s1 [Molecular Rotor 24]
570 nm | 615 | CCCCCCCCCCN(CCCCCCCCCC)c1ccc2cc(C=C(C#N)C#N)sc2c1 [Molecular Rotor 25]
610 nm | 712 | CN1C(=O)/C(=C\c2cc3ccc(N(C)CCOCCC(=O)O)cc3s2)N=C1c1ccccc1 [Molecular Rotor 26]
600 nm | 601 | CCCCN(CC(O)CO)c1ccc2cc(/C=C3/N=C(C)N(C)C3=O)sc2c1 (stereo not drawn) [Molecular Rotor 27]
650 nm | 569 | CCCCN(CCO)c1ccc2cc(/C=C3N=C(/C=C/c4ccccc4)N(C)C/3=O)sc2c1 [Molecular Rotor 28]
570 nm | 515 | COCCOCCOCCOCCOCCN(C)c1ccc2cc(/C=C(\C#N)C(=O)O)sc2c1 [Molecular Rotor 29]
520 nm | 513 | COCCNC(=O)/C(C#N)=C/c1cc2ccc(OC)cc2s1 [Molecular Rotor 30]
535 nm | 572 | COC(=O)/C(C#N)=C/c1cc2ccc(O)cc2s1 [Molecular Rotor 31]

Maximum Emission Wavelength | Fluorescence Intensity Ratios in Glycerol/Methanol | Compound
570 nm | 612 | COc1c(/C=C(\C#N)C(=O)OC(C)(C)C)sc2c(OC)c(N(C)C)sc12 [Molecular Rotor 32]
565 nm | 531 | COc1c(/C=C(\C#N)C(=O)O)sc2c(OC)c(N(C)C)sc12 [Molecular Rotor 33]
626 nm | 1012 | CN(C)c1ccc2c(c1)sc1cc(C=C(C#N)C#N)sc12 [Molecular Rotor 34]
626 nm | 476 | CN(CCO)c1ccc2c(c1)sc1cc(/C=C(\C#N)C(=O)OC(C)(C)C)sc12 [Molecular Rotor 35]
628 nm | 901 | COCCNC(=O)/C(C#N)=C/c1cc2sc3cc(N(CCO)CCO)ccc3c2s1 [Molecular Rotor 36]
627 nm | 879 | CNc1ccc2c(c1)sc1cc(/C=C(\C#N)C(=O)O)sc12 [Molecular Rotor 37]
650 nm | 623 | COCCOCCOCCOCCOCCN(C)c1ccc2c(c1)sc1cc(/C=C(\C#N)c3nc4ccccc4o3)sc12 [Molecular Rotor 38]
667 nm | 541 | CN(CCC#N)c1ccc2c(c1)sc1cc(/C=C(\C#N)c3nc4ccccc4s3)sc12 [Molecular Rotor 39]
659 nm | 652 | CCCCN(CCO)c1ccc2c(c1)sc1cc(/C=C3/N=C(c4ccccc4)N(C)C3=O)sc12 [Molecular Rotor 40]
558 nm | 875 | CN(C)c1cc2cc3sc(C=C(C#N)C#N)cc3cc2s1 [Molecular Rotor 41]
558 nm | 924 | CCCCCCCCCCN(CCCCCCCCCC)c1cc2cc3sc(/C=C(\C#N)C(=O)OC(C)(C)C)cc3cc2s1 [Molecular Rotor 42]
582 nm | 816 | CN(CCO)c1cc2cc3sc(/C=C(\C#N)c4nc5ccccc5o4)cc3cc2s1 [Molecular Rotor 43]
603 nm | 631 | CNc1cc2cc3sc(/C=C(\C#N)c4nc5ccccc5s4)cc3cc2s1 [Molecular Rotor 44]
585 nm | 812 | COCCOCCOCCOCCOCCN(C)c1cc2cc3sc(/C=C4/N=C(C)N(C)C4=O)cc3cc2s1 [Molecular Rotor 45]
563 nm | 712 | COCCNC(=O)/C(C#N)=C/c1cc2cc3sc(N4CCCC4)cc3cc2s1 [Molecular Rotor 46]
561 nm | 912 | CN(CCC#N)c1cc2cc3sc(/C=C(\C#N)C(=O)O)cc3cc2s1 [Molecular Rotor 47]
562 nm | 608 | CN(CCO)c1cc2cc3cc(C=C(C#N)C#N)sc3cc2s1 [Molecular Rotor 48]
559 nm | 612 | CN(CCOCCCS(=O)(=O)O)c1cc2cc3cc(/C=C(\C#N)C(=O)OC(C)(C)C)sc3cc2s1 [Molecular Rotor 49]
587 nm | 777 | CC1=N/C(=C/c2cc3cc4cc(N(CCO)CCO)sc4cc3s2)C(=O)N1C [Molecular Rotor 50]
599 nm | 535 | CNc1cc2cc3cc(/C=C4/N=C(c5ccccc5)N(C)C4=O)sc3cc2s1 [Molecular Rotor 51]
578 nm | 680 | COCCOCCOCCOCCOCCN(C)c1cc2cc3cc(/C=C(\C#N)c4nc5ccccc5o4)sc3cc2s1 [Molecular Rotor 52]
599 nm | 915 | CN(CCC#N)c1cc2cc3cc(/C=C(\C#N)c4nc5ccccc5s4)sc3cc2s1 [Molecular Rotor 53]
563 nm | 722 | COCCNC(=O)/C(C#N)=C/c1cc2cc3cc(N4CCOCC4)sc3cc2s1 [Molecular Rotor 54]

Compound | Maximum Emission Wavelength | Fluorescence Intensity Ratios in Glycerol/Methanol
CN1C(=O)/C(=C/c2cc3sc4cc(N(CCCl)CCCl)sc4c3s2)N=C1/C=C/c1ccccc1 [Molecular Rotor 20] | 690 nm | 536
